Measurements published in patent US9718828B2 (MERCK SHARP & DOHME CORP., priority 2011, dated 2017).
Structures can show the parent of a compound that is named as a salt.

molecular target: Btk enzyme (His-Btk) (Homo sapiens (Human), UniProt Q06187); assay: Btk enzyme activity, IMAP fluorescence polarization assay (Assay Method A); conditions: not given
Sequence (Q06187 whole entry): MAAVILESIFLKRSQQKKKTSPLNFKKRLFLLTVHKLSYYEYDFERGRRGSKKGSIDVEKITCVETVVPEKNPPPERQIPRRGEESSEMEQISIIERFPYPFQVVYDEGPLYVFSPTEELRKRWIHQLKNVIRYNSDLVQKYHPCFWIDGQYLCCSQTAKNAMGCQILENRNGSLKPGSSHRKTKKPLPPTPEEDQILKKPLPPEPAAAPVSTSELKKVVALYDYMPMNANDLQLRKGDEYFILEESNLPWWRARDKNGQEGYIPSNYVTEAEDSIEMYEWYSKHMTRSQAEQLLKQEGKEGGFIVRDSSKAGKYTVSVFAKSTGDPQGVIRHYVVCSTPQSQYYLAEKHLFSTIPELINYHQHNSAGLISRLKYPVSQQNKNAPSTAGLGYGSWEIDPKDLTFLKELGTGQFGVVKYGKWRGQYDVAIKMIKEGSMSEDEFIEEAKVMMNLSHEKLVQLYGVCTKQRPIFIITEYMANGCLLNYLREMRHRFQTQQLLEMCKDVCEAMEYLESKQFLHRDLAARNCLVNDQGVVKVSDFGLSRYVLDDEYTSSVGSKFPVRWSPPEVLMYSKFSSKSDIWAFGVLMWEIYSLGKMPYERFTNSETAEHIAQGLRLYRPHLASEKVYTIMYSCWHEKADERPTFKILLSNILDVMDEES

| SMILES | EC50 |
| --- | --- |
| CC1(C)CC(c2nc(-c3ccc(C(=O)Nc4ccccn4)cc3)c3c(N)nccn23)CCO1 (stereo not shown) [Example 35, 4-(8-amino-3-(2,2-dimethyltetrahydro-2H-pyran-4-yl)imidazo[1,5-a]pyrazin-1-yl)-N-(pyridin-2-yl)benzamide] | 10 to 100 nM |
| Nc1nccn2c([C@@H]3CCCN(CC4CC4)C3)nc(-c3ccc(C(=O)Nc4cc(C(F)(F)F)ccn4)cc3)c12 [Example 140, (R)-4-(8-amino-3-(1-(cyclopropylmethyl)piperidin-3-yl)imidazo[1,5-a]pyrazin-1-yl)-N-(4-(trifluoromethyl)pyridin-2-yl)benzamide, TFA salt] | 10 to 100 nM |
| CC1(C(=O)N2CC[C@@H](c3nc(-c4ccc(C(=O)Nc5ccccn5)cc4)c4c(N)nccn34)C2)COC1 [Example 126, (R)-4-(8-amino-3-(1-(3-methyloxetane-3-carbonyl)pyrrolidin-3-yl)imidazo[1,5-a]pyrazin-1-yl)-N-(pyridin-2-yl)benzamide, TFA salt] | 100 to 1000 nM |
| COCCC(=O)N1CCC[C@@H](c2nc(-c3ccc(C(=O)Nc4ccccn4)c(C)c3)c3c(N)nccn23)C1 [Example 286, (R)-4-(8-amino-3-(1-(3-methoxypropanoyl)piperidin-3-yl)imidazo[1,5-a]pyrazin-1-yl)-2-methyl-N-(pyridin-2-yl)benzamide, TFA salt] | 10 to 100 nM |
| Nc1nccn2c(C3CC4CCC3N4C(=O)OCc3ccccc3)nc(-c3ccc(C(=O)Nc4ccccn4)cc3)c12 (stereo not shown) [Example 149, benzyl 2-(8-amino-1-(4-(pyridin-2-ylcarbamoyl)phenyl)imidazo [1,5-a]pyrazin-3-yl)-7-azabicyclo[2.2.1]heptane-7-carboxylate] | 10 to 100 nM |
| Nc1nccn2c([C@@H]3CCCN(C=O)C3)nc(-c3ccc(C(=O)Nc4ccccn4)cc3)c12 [Example 95, (R)-4-(8-amino-3-(1-formylpiperidin-3-yl)imidazo[1,5-a]pyrazin-1-yl)-N-(pyridin-2-yl)benzamide] | 10 to 100 nM |
| N#Cc1ccnc(NC(=O)c2ccc(-c3nc(C4CCOC4)n4ccnc(N)c34)cc2)c1 (stereo not shown) [Example 33, 4-(8-amino-3-(tetrahydrofuran-3-yl)imidazo[1,5-a]pyrazin-1-yl)-N-(4-cyanopyridin-2-yl)benzamide] | 10 to 100 nM |
| CCN(CC)c1nc(-c2ccc(C(=O)Nc3cc(C(F)(F)F)ccn3)cc2)c2c(N)nccn12 [Example 216, 4-(8-amino-3-(diethylamino)imidazo[1,5-a]pyrazin-1-yl)-N-(4-(trifluoromethyl)pyridin-2-yl)benzamide] | 10 to 100 nM |
| Cc1noc([C@H]2C[C@@H]2C(=O)N2CCC[C@@H](c3nc(-c4ccc(C(=O)Nc5cc(C(F)(F)F)ccn5)cc4)c4c(N)nccn34)C2)n1 [Example 82, 4-(8-amino-3-((R)-1-((1S,2S)-2-(3-methyl-1,2,4-oxadiazol-5-yl)cyclopropanecarbonyl)piperidin-3-yl)imidazo[1,5-a]pyrazin-1-yl)-N-(4-(trifluoromethyl)pyridin-2-yl)benzamide] | < 10 nM |
| CC(C)(C#N)C(=O)N1CCC[C@@H](c2nc(-c3ccc(C(=O)Nc4ccccn4)cc3)c3c(N)nccn23)C1 [Example 108, (R)-4-(8-amino-3-(1-(2-cyano-2-methylpropanoyl)piperidin-3-yl)imidazo[1,5-a]pyrazin-1-yl)-N-(pyridin-2-yl)benzamide] | 10 to 100 nM |
| Nc1nccn2c([C@@H]3CCCN(C(=O)C4CC4)C3)nc(-c3ccc(C(=O)Nc4cc(C(F)(F)F)ccn4)cc3)c12 [Example 103, (R)-4-(8-amino-3-(1-(cyclopropanecarbonyl)piperidin-3-yl)imidazo[1,5-a]pyrazin-1-(trifluoromethyl)pyridin-2-yl)benzamide] | < 10 nM |

The remaining lines, values ahead:

| EC50 | SMILES |
| --- | --- |
| 10 to 100 nM | Nc1nccn2c(N3CCCC(C(=O)N4CCOCC4)C3)nc(-c3ccc(C(=O)Nc4ccccn4)cc3)c12 (stereo not shown) [Example 229, 4-(8-amino-3-(3-(morpholine-4-carbonyl)piperidin-1-yl)imidazo[1,5-a]pyrazin-1-yl)-N-(pyridin-2-yl)benzamide, TFA salt] |
| 100 to 1000 nM | COCCCNC(=O)c1cnc(N)c2c(-c3ccc(C(=O)Nc4cc(C(F)(F)F)ccn4)cc3)nc(C)n12 [Example 291, 8-amino-N-(3-methoxypropyl)-3-methyl-1-(4-(4-(trifluoromethyl)pyridin-2-ylcarbamoyl)phenyl)imidazo[1,5-a]pyrazine-5-carboxamide] |
| < 10 nM | CC(C)(C)C(=O)N1CCC[C@@H](c2nc(-c3ccc(C(=O)Nc4cc(C(F)(F)F)ccn4)cc3)c3c(N)nccn23)C1 [Example 76, (R)-4-(8-amino-3-(1-pivaloylpiperidin-3-yl)imidazo[1,5-a]pyrazin-1-yl)-N-(4-(trifluoromethyl)pyridin-2-yl)benzamide] |
| 10 to 100 nM | Nc1nccn2c1c(-c1ccc(C(=O)Nc3ccccn3)cc1)nc2[C@H]1CC[C@H](O)CC1 [Example 1, 4-(8-amino-3-((trans)-4-hydroxycyclohexyl)imidazo[1,5-a]pyrazin-1-yl)-N-(pyridin-2-yl)benzamide] |
| 10 to 100 nM | Nc1nccn2c([C@@H]3CCCN(CCc4ccccc4)C3)nc(-c3ccc(C(=O)Nc4ccccn4)cc3)c12 [Example 134, (R)-4-(8-amino-3-(1-phenethylpiperidin-3-yl)imidazo[1,5-a]pyrazin-1-yl)-N-(pyridin-2-yl)benzamide, TFA salt] |
| 100 to 1000 nM | CCC(=O)N1CCC2(CC1)CC2c1nc(-c2ccc(C(=O)Nc3ccccn3)cc2)c2c(N)nccn12 (stereo not shown) [Example 153, 4-(8-amino-3-(6-propionyl-6-azaspiro[2.5]octan-1-yl)imidazo[1,5-a]pyrazin-1-yl)-N-(pyridin-2-yl)benzamide] |

same assay, conditions: read-out: EC50 Btk activity values - Assay Method A; IMAP-FP, 60 min pre-incubation, 5 μM ATP; class 100-1000 is given as ≧100 nM-<1 μM

| SMILES | EC50 |
| --- | --- |
| CCNC(=O)N1CCCC(c2cc(-c3ccc(C(=O)Nc4cc(C(F)(F)F)ccn4)cc3)c3c(N)ncnn23)C1 (stereo not shown) [Example 252, 3-(4-amino-5-(4-(4-(trifluoromethyl)pyridin-2-ylcarbamoyl)phenyl)pyrrolo[1,2-f][1,2,4]triazin-7-yl)-N-ethylpiperidine-1-carboxamide] | < 10 nM |
| CS(=O)(=O)CCNC(=O)C1CCCN(c2nc(-c3ccc(C(=O)Nc4cc(C(F)(F)F)ccn4)cc3)c3c(N)nccn23)C1 (stereo not shown) [Example 240, 1-(8-amino-1-(4-(4-(trifluoromethyl)pyridin-2-ylcarbamoyl)phenyl)imidazo[1,5-a]pyrazin-3-yl)-N-(2-(methylsulfonyl)ethyl)piperidine-3-carboxamide, TFA salt] | < 10 nM |
| C=Cc1cnc(N)c2c(-c3ccc(C(=O)Nc4cc(C(F)(F)F)ccn4)cc3)nc([C@@H]3CCCN(C(=O)C4(C)COC4)C3)n12 [Example 302, (R)-4-(8-amino-3-(1-(3-methyloxetane-3-carbonyl)piperidin-3-yl)-5-vinylimidazo[1,5-a]pyrazin-1-yl)-N-(4-(trifluoromethyl)pyridin-2-yl)benzamide] | < 10 nM |
| Nc1nccn2c([C@@H]3CCC[C@@H](NC(=O)C4CCCO4)C3)nc(-c3ccc(C(=O)Nc4cc(C(F)(F)F)ccn4)cc3)c12 (relative stereo) [Example 169, N-((trans)-3-(8-amino-1-(4-(4-(trifluoromethyl)pyridin-2-ylcarbamoyl)phenyl)imidazo [1,5-a]pyrazin-3-yl)cyclohexyl)tetrahydrofuran-2-carboxamide] | < 10 nM |
| Nc1nccn2c([C@@H]3CCCN(C(=O)C4CC(F)(F)C4)C3)nc(-c3ccc(C(=O)Nc4cc(C5CC5)ccn4)cc3)c12 [Example 109, (R)-4-(8-amino-3-(1-(3,3-difluorocyclobutanecarbonyl)piperidin-3-yl)imidazo[1,5-a]pyrazin-1-yl)-N-(4-cyclopropylpyridin-2-yl)benzamide] | < 10 nM |
| CC1(C(=O)N2CCC[C@@H](c3nc(-c4ccc(C(=O)Nc5cc(C(F)(F)F)ccn5)cc4)c4c(N)ncc(C(=O)O)n34)C2)COC1 [Example 300, (R)-8-amino-3-(1-(3-methyloxetane-3-carbonyl)piperidin-3-yl)-1-(4-(4-(trifluoromethyl)pyridin-2-ylcarbamoyl)phenyl)imidazo[1,5-a]pyrazine-5-carboxylic acid] | < 10 nM |

The next lines start with the values.

| EC50 | SMILES |
| --- | --- |
| < 10 nM | Nc1ncnn2c([C@@H]3CCCN(C(=O)C4CC(F)(F)C4)C3)nc(-c3ccc(C(=O)Nc4cc(C(F)(F)F)ccn4)cc3)c12 [Example 260, (R)-4-(4-amino-7-(1-(3,3-difluorocyclobutanecarbonyl)piperidin-3-yl)imidazo[1,5-f][1,2,4]triazin-5-yl)-N-(4-(trifluoromethyl)pyridin-2-yl)benzamide] |
| < 10 nM | COCCC(=O)N1CCC[C@@H](n2nc(-c3ccc(C(=O)Nc4cc(C(F)(F)F)ccn4)cc3)c3c(N)ncnc32)C1 [Example 280, (R)-4-(4-amino-1-(1-(3-methoxypropanoyl)piperidin-3-yl)-1H-pyrazolo[3,4-d]pyrimidin-3-yl)-N-(4-(trifluoromethyl)pyridin-2-yl)benzamide] |
| < 10 nM | COC[C@H](C)NC(=O)C1CCCN(c2nc(-c3ccc(C(=O)Nc4ccccn4)cc3)c3c(N)nccn23)C1 (stereo partly drawn) [Example 235, 1-(8-amino-1-(4-(pyridin-2-ylcarbamoyl)phenyl)imidazo[1,5-a]pyrazin-3-yl)-N-((S)-1-methoxypropan-2-yl)piperidine-3-carboxamide, TFA salt] |
| < 10 nM | CCNC(=O)N1CCC[C@@H](n2nc(-c3ccc(C(=O)Nc4cc(C(F)(F)F)ccn4)cc3)c3c(N)ncnc32)C1 [Example 268, (R)-3-(4-amino-3-(4-(4-(trifluoromethyl)pyridin-2-ylcarbamoyl)phenyl)-1H-pyrazolo[3,4-d]pyrimidin-1-yl)-N-ethylpiperidine-1-carboxamide] |
| < 10 nM | CCOC(=O)N1C[C@H](c2nc(-c3ccc(C(=O)Nc4cc(C5CC5)ccn4)cc3)c3c(N)nccn23)CC[C@@H]1C (relative stereo) [Example 199, (cis)-ethyl 5-(8-amino-1-(4-(4-cyclopropylpyridin-2-ylcarbamoyl)phenyl)imidazo [1,5-a]pyrazin-3-yl)-2-methylpiperidine-1-carboxylate, TFA salt] |
